Among the test systems are CCRF-CEM; OVCAR-8; COLO 205; MDA-N; U-251; NCI-H522; LOX IMVI; SW-620; UO-31; CAKI-1; MOLT-4; HOP-92; MDA-MB-231; SNB-19; HL-60; SK-MEL-2; BT-549; KM12; NCI/ADR-RES; SN12C.
Assay in all cases: inhibition of tumour cell growth, NCI panel, 48 h

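Where inhibition never reached the appropriate level, the endpoint shown equals the highest concentration tested. Otherwise, values were interpolated linearly from a five-concentration, 48-hour dose response in 96-well plates. GI50 is the concentration that inhibits growth by half.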 Active and inactive are the calls of the source. Cut-off read from the data, not from the text of the source: active = GI50 up to about 1.1 µM and inactive = higher. A value given as a limit tells only on which side of the number the result lay.

On to `CC1(C)CC(=O)C2=C(C1)c1c(ccc3ccccc13)NC2c1cn(Cc2ccc(Cl)cc2)c2ccccc12` (stereo not given), for which the GI50 in the experiment on CCRF-CEM was 55.7 µM (inactive); with OVCAR-8 it was > 100 µM (inactive); in the experiment with COLO 205, > 100 µM (inactive); in the experiment with MDA-N it was > 100 µM (inactive); in the experiment on U-251, 56.8 µM (inactive); in the experiment with NCI-H522, 66.8 µM (inactive). Besides, the GI50 is 38.7 µM (inactive) in the experiment on LOX IMVI; > 100 µM (inactive) in the experiment on SW-620; > 100 µM (inactive) in the experiment on UO-31; 13.3 µM (inactive) with CAKI-1; 58.1 µM (inactive) in the experiment with MOLT-4; 27.7 µM (inactive) in the experiment with HOP-92. Also, the GI50 in the experiment with MDA-MB-231 was > 100 µM (inactive); in the experiment with SNB-19, 75 µM (inactive); with HL-60, 37.8 µM (inactive); in the experiment on SK-MEL-2 it was > 100 µM (inactive); in the experiment on BT-549 it was 95.9 µM (inactive); in the experiment on KM12, > 100 µM (inactive). In addition, the GI50 in the experiment with NCI/ADR-RES is 52.6 µM (inactive); with SN12C, > 100 µM (inactive).

On to `COc1ccc(/C=C2\N=C(N3CCCCC3)NC2=O)cc1`, for which the GI50 with CCRF-CEM was > 100 µM (inactive); in the experiment on OVCAR-8, > 100 µM (inactive); in the experiment with COLO 205, > 100 µM (inactive); with MDA-N it was 59 µM (inactive); in the experiment on U-251, > 100 µM (inactive); in the experiment with NCI-H522, 57.4 µM (inactive). Further, the GI50 was 95.1 µM (inactive) in the experiment on LOX IMVI; 96.8 µM (inactive) with SW-620; 48.3 µM (inactive) in the experiment on UO-31; > 100 µM (inactive) in the experiment on CAKI-1; > 100 µM (inactive) with MOLT-4; > 100 µM (inactive) in the experiment on HOP-92. For the same molecule, the GI50 with MDA-MB-231 is > 100 µM (inactive); in the experiment with SNB-19, > 100 µM (inactive); with HL-60, > 100 µM (inactive); with SK-MEL-2 it was > 100 µM (inactive); in the experiment on BT-549 it was > 100 µM (inactive); in the experiment with KM12, 52.1 µM (inactive). Besides, the GI50 in the experiment with NCI/ADR-RES and with SN12C was > 100 µM (inactive) each time.

In the case of `Cc1ccc(C(=O)CCl)o1`, the GI50 with CCRF-CEM is 2.39 µM (inactive); in the experiment on OVCAR-8 it was > 4.5 µM (inactive); with COLO 205, 3.01 µM (inactive); with MDA-N, > 7.08 µM (inactive); in the experiment with U-251, > 10 µM (inactive); in the experiment on NCI-H522, 2.92 µM (inactive). For the same molecule, the GI50 was 2.98 µM (inactive) in the experiment with LOX IMVI; 2.3 µM (inactive) in the experiment on SW-620; > 4.67 µM (inactive) with UO-31; 3.12 µM (inactive) in the experiment with CAKI-1; 2.13 µM (inactive) in the experiment with MOLT-4; > 10 µM (inactive) in the experiment on HOP-92. For the same molecule, the GI50 in the experiment with MDA-MB-231 was > 7.31 µM (inactive); in the experiment with SNB-19, > 10 µM (inactive); in the experiment on HL-60 it was 2.11 µM (inactive); in the experiment on SK-MEL-2 it was > 10 µM (inactive); with BT-549, 5.3 µM (inactive); with KM12 it was > 10 µM (inactive). The GI50 with NCI/ADR-RES is > 10 µM (inactive); in the experiment on SN12C it was 3.69 µM (inactive).

On to `O=[N+]([O-])c1ccccc1S(=O)(=O)c1ccccc1[N+](=O)[O-]`, for which the GI50 in the experiment with CCRF-CEM was > 100 µM (inactive); in the experiment with OVCAR-8, > 56.2 µM (inactive); in the experiment on COLO 205, > 100 µM (inactive); in the experiment with MDA-N, > 100 µM (inactive); in the experiment on U-251, 28.9 µM (inactive); in the experiment with NCI-H522 it was > 67.6 µM (inactive). Further, the GI50 is > 100 µM (inactive) in the experiment on LOX IMVI; > 56.2 µM (inactive) with SW-620; > 82.2 µM (inactive) in the experiment on UO-31; > 100 µM (inactive) with CAKI-1; > 100 µM (inactive) in the experiment on MOLT-4; 32.4 µM (inactive) in the experiment with HOP-92. The GI50 with MDA-MB-231 is > 60.7 µM (inactive); with SNB-19, 56.8 µM (inactive); in the experiment with HL-60, > 100 µM (inactive); in the experiment with SK-MEL-2, > 100 µM (inactive); in the experiment on BT-549, 65.9 µM (inactive); in the experiment with KM12 it was > 72.3 µM (inactive). Moreover, the GI50 with NCI/ADR-RES and in the experiment on SN12C was > 100 µM (inactive) in each case.

As to `CCCc1cc(-c2ccc(-c3cc(CCC)c(C=O)[nH]3)s2)[nH]c1C=O`, the GI50 with CCRF-CEM is 2.44 µM (inactive); with OVCAR-8 it was > 49.1 µM (inactive); in the experiment on COLO 205, 4.83 µM (inactive); in the experiment on MDA-N it was 4.34 µM (inactive); in the experiment with U-251 it was 61.1 µM (inactive); with NCI-H522, 5.45 µM (inactive). The GI50 in the experiment on LOX IMVI is 5.89 µM (inactive); with SW-620 it was > 55.8 µM (inactive); with UO-31, 22.6 µM (inactive); in the experiment with CAKI-1, > 100 µM (inactive); in the experiment with MOLT-4, 2.9 µM (inactive); in the experiment on HOP-92, 27.5 µM (inactive). In addition, the GI50 in the experiment on MDA-MB-231 is > 100 µM (inactive); in the experiment with SNB-19 it was > 100 µM (inactive); in the experiment on HL-60 it was 4.3 µM (inactive); with SK-MEL-2, 22 µM (inactive); in the experiment with BT-549 it was 25.9 µM (inactive); in the experiment on KM12, > 27.9 µM (inactive). For the same molecule, the GI50 in the experiment with NCI/ADR-RES is 18.4 µM (inactive); in the experiment with SN12C, > 69.2 µM (inactive).

Turning to `C#CCOC(=O)[C@@H](C)c1ccc2cc(OC)ccc2c1`, the GI50 is 31.1 µM (inactive) with CCRF-CEM; > 100 µM (inactive) in the experiment on OVCAR-8; > 100 µM (inactive) in the experiment on COLO 205; > 100 µM (inactive) in the experiment on MDA-N; > 100 µM (inactive) in the experiment with U-251; 40.2 µM (inactive) in the experiment on NCI-H522. Further, the GI50 is 70.1 µM (inactive) in the experiment on LOX IMVI; > 100 µM (inactive) in the experiment with SW-620; 94 µM (inactive) in the experiment with UO-31; > 100 µM (inactive) in the experiment with CAKI-1; 32.1 µM (inactive) in the experiment on MOLT-4; 79.6 µM (inactive) in the experiment on HOP-92. The GI50 in the experiment on MDA-MB-231 was > 100 µM (inactive); with SNB-19 it was > 100 µM (inactive); in the experiment on HL-60, 15.1 µM (inactive); in the experiment on SK-MEL-2, > 100 µM (inactive); in the experiment on BT-549 it was 54.5 µM (inactive); with KM12 it was > 100 µM (inactive). Further, the figures for the GI50 with NCI/ADR-RES and in the experiment on SN12C were 68.2 µM (inactive) and > 100 µM (inactive), respectively.

`Cc1cc(=O)n2nc(CN3CCCCC3)sc2n1`: the GI50 with CCRF-CEM, in the experiment on OVCAR-8, with COLO 205, in the experiment with MDA-N, with U-251 and in the experiment with NCI-H522 was > 100 µM (inactive) in each case. Moreover, the GI50 with LOX IMVI, with SW-620, with UO-31, in the experiment with CAKI-1, with MOLT-4 and in the experiment with HOP-92 was > 100 µM (inactive) throughout. The GI50 with MDA-MB-231, in the experiment on SNB-19, with HL-60, in the experiment with SK-MEL-2, with BT-549 and in the experiment on KM12 was > 100 µM (inactive) each time. For the same molecule, the GI50 in the experiment on NCI/ADR-RES and in the experiment with SN12C was > 100 µM (inactive) each time.

For the molecule `CC1(C)C(C(=O)OC(C#N)c2cccc(OCC(=O)OCc3ccccc3)c2)C1(C)C` (stereo not given), the GI50 was 19.5 µM (inactive) in the experiment on CCRF-CEM; 35.2 µM (inactive) in the experiment on OVCAR-8; > 100 µM (inactive) in the experiment on COLO 205; > 100 µM (inactive) in the experiment with MDA-N; > 100 µM (inactive) in the experiment on U-251; > 100 µM (inactive) with NCI-H522. Besides, the GI50 was 95.7 µM (inactive) in the experiment with LOX IMVI; 70.3 µM (inactive) with SW-620; > 100 µM (inactive) in the experiment on UO-31; > 100 µM (inactive) in the experiment with CAKI-1; 18 µM (inactive) in the experiment with MOLT-4; > 100 µM (inactive) in the experiment with HOP-92. The GI50 was 66.1 µM (inactive) in the experiment on MDA-MB-231; > 100 µM (inactive) in the experiment with SNB-19; 2.3 µM (inactive) with HL-60; 20.4 µM (inactive) with SK-MEL-2; > 100 µM (inactive) in the experiment on BT-549; > 100 µM (inactive) with KM12. The GI50 is 81.5 µM (inactive) with NCI/ADR-RES and > 100 µM (inactive) in the experiment with SN12C.

Consider `O=[N+]([O-])/C=C/c1cn(CCCCCn2cc(/C=C/[N+](=O)[O-])c3ccccc32)c2ccccc12`, for which the GI50 in the experiment on CCRF-CEM was 1.04 µM (active); in the experiment with OVCAR-8, 3.27 µM (inactive); in the experiment on COLO 205, 4.3 µM (inactive); in the experiment on MDA-N it was 0.322 µM (active); with U-251, 1.61 µM (inactive); in the experiment with NCI-H522, 10.4 µM (inactive). Further, the GI50 was 0.611 µM (active) with LOX IMVI; 0.682 µM (active) with SW-620; 3.64 µM (inactive) in the experiment on UO-31; 17.7 µM (inactive) with CAKI-1; 3.05 µM (inactive) in the experiment with MOLT-4; 19.8 µM (inactive) in the experiment on HOP-92. The GI50 was 1.95 µM (inactive) in the experiment with MDA-MB-231; 6.73 µM (inactive) in the experiment on SNB-19; 0.787 µM (active) in the experiment with HL-60; 13.5 µM (inactive) in the experiment with SK-MEL-2; 1.28 µM (inactive) with BT-549; 1.69 µM (inactive) in the experiment on KM12. Also, the figures for the GI50 with NCI/ADR-RES and in the experiment on SN12C were 10.2 µM (inactive) and 3.16 µM (inactive), respectively.

Take `CC[C@H](C)[C@@H]([C@@H](CC(=O)N1CCC[C@H]1[C@H](OC)[C@@H](C)C(=O)NCCc1ccccc1)OC)N(C)C(=O)C(NC(=O)[C@H](C(C)C)N(C)C)C(C)C` (stereo not given in full): the GI50 in the experiment with CCRF-CEM is 0.000219 µM (active); with OVCAR-8 it was 0.000333 µM (active); in the experiment with COLO 205, 9.16e-05 µM (active); with MDA-N it was 3.46e-05 µM (active); with U-251, 0.000251 µM (active); in the experiment on NCI-H522, 5.83e-05 µM (active). Besides, the GI50 in the experiment on LOX IMVI was 0.000299 µM (active); in the experiment with SW-620, 0.000249 µM (active); in the experiment with UO-31 it was 0.00103 µM (active); in the experiment with CAKI-1, 0.00216 µM (active); with MOLT-4, 0.000132 µM (active); in the experiment on HOP-92, 0.0069 µM (active). For the same molecule, the GI50 with MDA-MB-231 was 0.000526 µM (active); in the experiment with SNB-19, 0.000395 µM (active); with HL-60, 7.02e-05 µM (active); in the experiment on SK-MEL-2 it was 0.000423 µM (active); with BT-549, 0.000588 µM (active); in the experiment on KM12 it was 8.57e-05 µM (active). The GI50 with NCI/ADR-RES is 0.00736 µM (active); in the experiment with SN12C, 0.000361 µM (active).

The values above are taken from ChEMBL document CHEMBL1201862, “PubChem BioAssay data set” (2004).
